Source: the NIST ThermoML archive (doi:10.1016/j.jct.2014.01.030)

Assay: xn = mol fraction of the nth substance listed
Settings: 101 kPa, Liquid; for speed of sound: Sing-around technique in a fixed-path interferometer; for mass density: Vibrating tube method

CCn1cc[n+](C)c1.COS(=O)(=O)[O-] [1-ethyl-3-methylimidazolium methylsulfate] + CCO
Settings	mass density, 288.15 K [kg/m3]	mass density, 298.15 K [kg/m3]	mass density, 308.15 K [kg/m3]	speed of sound, 288.15 K [m/s]	speed of sound, 298.15 K [m/s]	speed of sound, 308.15 K [m/s]
x2 = 0	1287.57	1280.81	1273.97	1781	1756	1732
x2 = 0.05	–	1273.01	1266.14	–	1744	1720
x2 = 0.0501	1279.94	–	–	1769	–	–
x2 = 0.1018	1271.31	–	–	1756	–	–
x2 = 0.102	–	1264.42	1257.55	–	1731	1707
x2 = 0.197	–	1246.51	1239.58	–	1704	1679
x2 = 0.1972	1253.48	–	–	1728	–	–
x2 = 0.3098	1228.51	–	–	1690	–	–
x2 = 0.31	–	1221.47	1214.47	–	1665	1640
x2 = 0.391	–	1199.39	1192.33	–	1630	1605
x2 = 0.3913	1206.5	–	–	1656	–	–
x2 = 0.503	1170.26	1163.02	1155.75	1600	1574	1549
x2 = 0.6129	1125.74	–	–	1532	–	–
x2 = 0.613	–	1118.41	1111.08	–	1506	1480
x2 = 0.703	–	1071.36	1063.86	–	1440	1413
x2 = 0.7031	1078.87	–	–	1467	–	–
x2 = 0.8087	1007.23	–	–	1376	–	–
x2 = 0.809	–	999.5	991.73	–	1348	1321
x2 = 0.901	–	914.27	906.19	–	1256	1226
x2 = 0.9011	922.29	–	–	1286	–	–
x2 = 0.948	–	859.57	851.28	–	1206	1175
x2 = 0.9482	867.78	–	–	1238	–	–
